Measured values from patent US6997270B2, “Compounds and method for generating a highly efficient membrane in water-based drilling fluids” (Halliburton Energy Services, Inc., priority 2000, dated 2006).

What was measured:
[1] = cited from earlier work
[2] = Membrane efficiency screening test (membrane efficiency screening equipment); conditions: about 25° Celsius, about 15 MPa
Description: Two types of test equipment are used for the present invention: (i) membrane efficiency screening equipment for tests conducted at 25° Celsius and the test solution at 15 MPa, and (ii) autonomous triaxial test equipment for tests conducted at temperatures above 25° Celsius and/or the test solution at 35 MPa.
The membrane efficiency screening equipment has six test cells. Six different test solutions can be tested under simulated downhole pressure conditions, at any one time with independent, individual test cell control. Referring to FIG. 4, the parts of the cell are shown as follows: Cell-1; Base-2; Bleed Port-3; Confining Fluid Port-4; Downstream Pressure Line (pore fluid)-5; Upstream Pressure Line (test solution)-6; Knurl-7; Top Platen-8; Membrane-9; Sample-10; Bottom Platen-11; O-Rings-12; Collar-13; and Seal-14.
The cell of FIG. 4 has a confining pressure and pore pressure capacity of 35 MPa and 20 MPa respectively. The confining pressure is applied with a Haskel pump and controlled with a high precision stepping motor pump control system. […] Two separate high-pressure gas cylinders provide the upstream and downstream pressures which are controlled by high pressure regulators.
The test procedures for the membrane efficiency screening equipment are as follows: • (a) bleed top (downstream) and bottom (upstream) platens 8 and 11 with simulated pore fluid; • (b) place a sample 10 (25 mm diameter and approximately 10 mm long) between the platens 8 and 11; • (c) jacket the sample in a 1.0 mm thick Viton membrane 9; • (d) mount O-rings 12 over the jacket on the platens 8 and 11; • (e) mount the cell 1; • (f) fill the cell 1 with water; • (g) apply a confining pressure of 20 MPa (via port 4); • (h) apply a back (upstream) pressure of 10 MPa (via line 6) and check for flow across the (upstream) platen 8; • (i) open the downstream pressure valve (on line 5) if the (downstream) pressure is less than 10 MPa; • (j) when the downstream pressure has stabilised at 10 MPa (pressure change <50 kPa/hour, i.e. sample has consolidated), increase the upstream pressure to 15 MPa; • (k) when the downstream pressure has increased by at least 2 MPa (pressure transmitted from the upstream end), reduce the upstream pressure to 10 MPa; • (l) when the downstream pressure has stabilised at 10 MPa (pressure change <50 kPa/hour, i.e. sample has reconsolidated), displace the pore fluid at the upstream end with the test solution at 15 MPa (water activity of test solution is not reduced with electrolyte, i.e. essentially the same as that of the shale); • (m) when the downstream pressure has increased and stabilised (pressure transmitted from the upstream end), displace the test solution (at the upstream end) with the lower water activity solution; • (n) adjust the lower water activity solution circulation rate; and • (o) terminate the test when a maximum decrease in the downstream pressure is observed.
The membrane efficiency obtained from a test is defined as percentage ratio of the maximum differential pressure developed across the shale sample (upstream pressure minus minimum downstream pressure during chemical potential stage) and the theoretical osmotic pressure of the test solution-shale system. The theoretical osmotic pressure is given by: [formula] where Π=osmotic pressure (kPa) • R=gas constant (0.083 liter atm mol^−1 ° K^−1) • T=absolute temperature (° K) • V=partial molar volume of water (0.018 litre mol^−1) • Asol=water activity of lower water activity solution • Ash=water activity of shale

[3] = Membrane efficiency test in autonomous triaxial test equipment (temperatures above 25° Celsius and/or 35 MPa)
Description: Based on the aforementioned fundamental understanding of the membrane generation mechanisms for acid-base species, we have discovered a range of novel compounds for use in water-based drilling fluids that have the capacity to generate a highly efficient membrane on the borehole wall in argillaceous formations. […] Two types of test equipment are used for the present invention: (i) membrane efficiency screening equipment for tests conducted at 25° Celsius and the test solution at 15 MPa, and (ii) autonomous triaxial test equipment for tests conducted at temperatures above 25° Celsius and/or the test solution at 35 MPa.
Referring to FIG. 5, the parts of the cell are shown as follows: Top Plate-20; Bottom Platen-21; Load Cell-22; Top Cap-23; Downstream Pore Pressure Port-24; Removable Cell Body-25; Radial Gauges-26; LVDT-27; Upstream Pore Pressure Port-28; Clamping Ring-29; Upstream Flush Pressure Port-30; O-Ring-31; Membrane-32; Temperature Sensor-33; and Sample 34.
The cell of FIG. 5 has a confining pressure and pore pressure capacity of 70 MPa.
The instruments used to measure the behaviour of the test sample 34 are as follows: • (a) two diametrically-opposed LVDTs (Linear Variable Differential Transformers) 27 mounted between the sample end platens to measure axial deformation of the sample 34; • (b) four cantilever (orthogonal) radial gauges 26 mounted at mid-height of the sample 34 to measure radial deformation; • (c) two thermal sensors 33 to measure sample 34 top and bottom temperatures; • (d) a load cell 22 located underneath the bottom platen 21 to measure axial deviatoric load (not used); • (e) a pressure transducer to measure cell (confining) pressure; and • (f) two pressure transducers to measure pore pressure at both ends of the sample 34.
A computer-controlled system was used to control the cell and pore pressures with stepping motor pumps, and to perform data acquisition. During the test, the cell temperature was maintained constant by placing the autonomous triaxial cell in a temperature-controlled oven. […]

[4] = Phase transition to a hexagonal phase (aqueous concentration); format: physicochemical; conditions: about pH 10; about 25° Celsius

Which pKa [1] does the source give for `C[Si](O)(O)O` [methyl silanetriol] here?
Its pKa is “about 11”.

For `Oc1ccc2ccccc2c1` [2-naphthol], which “Change of membrane generation capacity with pH” value (from here on “Change”) ([2]; for a given concentration) is on record?
Its value is “did not change significantly between the pH range”.

Which Membrane efficiency ([2]; about 5 to about 10 wt %, pH about 11.95 to about 12.8, 12, 15 or 20 wt % sodium chloride) does the source give for Potassium methyl siliconate here?
Its Membrane efficiency is “up to 80%”.

And the “Change” value ([2]; for a given concentration)?
Its value is “increased greatly when pH was reduced from about 12.8 to about 11.95”.

And the “Effect of temperature on membrane generation capacity” value ([3]; temperature up to about 80° Celsius)?
The value was “not significantly affected by temperature of up to about 80° Celsius”.

And the “Effect of test solution pressure on membrane generation capacity” value ([3]; test solutions at about 35 MPa)?
The value was “only slightly reduced”.

What about the Membrane efficiency ([3]; test solutions at about 35 MPa, about 40° Celsius to about 80° Celsius) of the same molecule?
Its Membrane efficiency is “approximately 54%”.

For silicic acid, which “Change” value ([2]; about 1 wt % and about 2.5 wt %) is on record?
Its value is “essentially the same between pH of about 11.15 and about 12.5”.

What about the “Change” value ([2]; about 5 wt % to about 10 wt %) of the same molecule?
The value was “increases with increase in pH”.

And the Membrane efficiency ([2]; all concentrations evaluated (about 1 to about 10 wt %), pH about 11.15 to about 12.5, 12 wt % sodium chloride)?
Its Membrane efficiency is > 70%.

With `[Cl-].[K+]` [potassium chloride, reference compound] as the molecule, how does the Membrane efficiency ([2]; stock solution about 26.3 wt % potassium chloride, pH not adjusted) read?
The Membrane efficiency was “about 9%”.

What does the source list for sodium methyl siliconate?
Membrane efficiency ([2]; about 5 to about 10 wt %, pH about 11.9 to about 12.6, 12 wt % sodium chloride or 16 wt % potassium chloride): up to 86%; Change of membrane generation capacity with pH ([2]; for a given concentration): increased greatly when pH was reduced from about 12.6 to about 11.9

For `CCCCCCCCCCCC(=O)[O-].C[N+](C)(C)C` [tetramethylammonium laurate], which Membrane efficiency ([2]; about 5 to about 10 wt %, pH about 7.6 to about 11.5, water activity reduced with 33.4 wt % tetramethylammonium chloride) is on record?
Its Membrane efficiency is “up to 57%”.

And the “Change” value ([2]; for a given concentration)?
Its value is “increased significantly when pH was increased from about 7.6 to about 11.5”.

What about the “Concentration at which phase transition to a hexagonal phase occurs” value [4] of the same molecule?
Its value is “about 20 wt %”.

Which results are given for `CCCCCCCC/C=C\CCCCCCCC(=O)[O-].C[N+](C)(C)C` [Tetramethylammonium oleate]?
Membrane efficiency ([2]; about 5 to about 10 wt %, pH about 9, water activity reduced with 33.4 wt % tetramethylammonium chloride): up to 44%; Concentration at which phase transition to a hexagonal phase occurs [4]: about 20 wt %

For `C[N+](C)(C)C.[Cl-]` [tetramethylammonium chloride, reference compound], which Membrane efficiency ([2]; stock solution about 33.4 wt % tetramethylammonium chloride, pH not adjusted) is on record?
Its Membrane efficiency is “about 8%”.
